Data published in ChEMBL document CHEMBL2331232, “Α-mangostin and gambogic acid as potential inhibitors of the p53-MDM2 interaction revealed by a yeast approach” (J Nat Prod, 2013).
Calls of active or inactive are those of the source. No cut-off for these calls is given here.

Tests used:
[1] = molecular target: Cellular tumor antigen p53 (Homo sapiens) (UniProt P04637); experiment: Inhibition of human p53 expressed in Saccharomyces cerevisiae CG379 assessed as effect on cell growth at 1 to 100 uM after 42 hrs
Chain of Cellular tumor antigen p53 (Homo sapiens) (P04637 whole entry, looked up): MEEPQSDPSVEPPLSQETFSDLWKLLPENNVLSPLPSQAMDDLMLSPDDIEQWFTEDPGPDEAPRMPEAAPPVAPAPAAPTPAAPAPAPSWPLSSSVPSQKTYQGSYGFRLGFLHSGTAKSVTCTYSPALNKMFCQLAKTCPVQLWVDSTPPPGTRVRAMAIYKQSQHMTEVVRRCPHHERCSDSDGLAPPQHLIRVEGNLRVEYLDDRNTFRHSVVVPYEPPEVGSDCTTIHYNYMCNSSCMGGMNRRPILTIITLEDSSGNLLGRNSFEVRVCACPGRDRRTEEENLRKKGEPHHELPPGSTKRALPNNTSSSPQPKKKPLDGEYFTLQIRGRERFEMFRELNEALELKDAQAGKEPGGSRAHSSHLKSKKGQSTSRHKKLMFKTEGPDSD

[2] = molecular target: E3 ubiquitin-protein ligase Mdm2 (Homo sapiens) (UniProt Q00987); experiment: Inhibition of human MDM2 expressed in Saccharomyces cerevisiae CG379 assessed as effect on cell cycle arrest at 1 to 100 uM after 42 hrs
Chain of E3 ubiquitin-protein ligase Mdm2 (Homo sapiens) (Q00987 whole entry, looked up): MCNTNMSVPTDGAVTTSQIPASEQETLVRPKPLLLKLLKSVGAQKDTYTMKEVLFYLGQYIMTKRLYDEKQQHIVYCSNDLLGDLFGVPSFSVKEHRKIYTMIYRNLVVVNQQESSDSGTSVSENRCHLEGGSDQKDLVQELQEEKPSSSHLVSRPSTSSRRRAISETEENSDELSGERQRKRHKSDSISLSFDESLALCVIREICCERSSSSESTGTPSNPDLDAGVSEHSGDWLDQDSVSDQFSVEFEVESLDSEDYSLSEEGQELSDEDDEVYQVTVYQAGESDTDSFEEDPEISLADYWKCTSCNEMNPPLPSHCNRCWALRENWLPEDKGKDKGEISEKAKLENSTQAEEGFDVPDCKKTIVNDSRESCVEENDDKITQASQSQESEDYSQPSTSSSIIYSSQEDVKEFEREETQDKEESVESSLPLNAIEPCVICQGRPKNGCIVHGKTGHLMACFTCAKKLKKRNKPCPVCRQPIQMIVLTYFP

[3] = tested on: Cellular tumor antigen p53 (Homo sapiens), P04637 [R280K]; experiment: Inhibition of human p53 R280K mutant expressed in Saccharomyces cerevisiae CG379 assessed as effect on cell growth at 10 uM after 31 hrs
[4] = molecular target: Cellular tumor antigen p53 (Homo sapiens) (UniProt P04637); experiment: Inhibition of human p53 expressed in Saccharomyces cerevisiae CG379 assessed as effect on cell cycle arrest at 1 to 100 uM after 42 hrs

Structure (SMILES): CC(C)=CCC[C@]1(C)C=Cc2c(O)c3c(c(CC=C(C)C)c2O1)O[C@]12C(=C[C@@H]4C[C@H]1C(C)(C)O[C@@]2(C/C=C(/C)C(=O)O)C4=O)C3=O
- inhibition [1]: inactive
- inhibition [2]: Active
- inhibition [3]: inactive
- inhibition [4]: inactive

Structure (SMILES): COc1c(O)cc2oc3cc(O)c(CC=C(C)C)c(O)c3c(=O)c2c1CC=C(C)C
- inhibition [1]: inactive
- inhibition [2]: inactive
- inhibition [3]: inactive
- inhibition [4]: inactive
